# Reference: patent US20180256673A1, “METHODS FOR TREATING FUNGAL INFECTIONS” (priority 2015, published 2018)
# Experiments:
# [1] = system: azole-resistant Candida albicans R357 strain; assay: microbe, parasite or virus in culture; type: cell-based; conditions: for MIC: Candida albicans
# [2] = system: C. albicans ATCC 44858, DPL001, R357; assay: Time-kill assay in vagina-simulative medium pH 4.0 (Table 16); type: cell-based, Candida albicans; conditions: ATCC 44858 (FLU S)
# [3] = system: C. glabrata CG01, ATCC 200918, MMX 7070; assay: Time-kill assay in vagina-simulative medium pH 4.0 (Table 17); type: cell-based, Candida glabrata; conditions: C. glabrata CG01 (FLU S), VSM pH 4.0
# [4] = system: C. tropicalis CTO2, MMX 7255, MMX 7525; assay: Time-kill assay in vagina-simulative medium pH 4.0 (Table 18); type: cell-based, Candida tropicalis; conditions: C. tropicalis CT02 (FLU S), VSM pH 4.0
# [5] = system: C. parapsilosis CP02, CP01, MMX 7370; assay: Time-kill assay in vagina-simulative medium pH 4.0 (Table 19); type: cell-based, Candida parapsilosis; conditions: C. parapsilosis CP02 (FLU S), VSM pH 4.0
compound,measurement,setting,value
CC[C@@H]([C@H](C)O)n1ncn(-c2ccc(N3CCN(c4ccc(OC[C@@H]5CO[C@@](Cn6cncn6)(c6ccc(F)cc6F)C5)cc4)CC3)cc2)c1=O [Posaconazole],MIC,[1],> 64 mg/L
"CC(C)N1CCN(c2ccc(OCC3COC(Cn4cncn4)(c4ccc(Cl)cc4Cl)O3)cc2)CC1 (stereo not drawn) [TCZ, terconazole]",log-fold change in CFU,"[2]; 24 h, 2 μg/mL",0.33 log-fold
same,log-fold change in CFU,"[2]; 24 h, 8 μg/mL",0.33 log-fold
same,log-fold change in CFU,"[2]; 24 h, 32 μg/mL",−1.16 log-fold
same,log-fold change in CFU,"[2]; 24 h, 128 μg/mL",−1.41 log-fold
same,log-fold change in CFU,"[2]; 48 h, 2 μg/mL",2.00 log-fold
same,log-fold change in CFU,"[2]; 48 h, 8 μg/mL",1.38 log-fold
same,log-fold change in CFU,"[2]; 48 h, 32 μg/mL",−1.07 log-fold
same,log-fold change in CFU,"[2]; 48 h, 128 μg/mL",−1.64 log-fold
same,log-fold change in CFU,"[2]; 72 h, 2 μg/mL",2.52 log-fold
same,log-fold change in CFU,"[2]; 72 h, 8 μg/mL",2.27 log-fold
same,log-fold change in CFU,"[2]; 72 h, 32 μg/mL",−0.41 log-fold
same,log-fold change in CFU,"[2]; 72 h, 128 μg/mL",−0.81 log-fold
same,log-fold changes in CFU,"[3]; 24 h, 2 μg/mL",2.43 log-fold
same,log-fold changes in CFU,"[3]; 24 h, 8 μg/mL",2.43 log-fold
same,log-fold changes in CFU,"[3]; 24 h, 32 μg/mL",2.40 log-fold
same,log-fold changes in CFU,"[3]; 24 h, 128 μg/mL",1.79 log-fold
same,log-fold changes in CFU,"[3]; 48 h, 2 μg/mL",2.42 log-fold
same,log-fold changes in CFU,"[3]; 48 h, 8 μg/mL",2.45 log-fold
same,log-fold changes in CFU,"[3]; 48 h, 32 μg/mL",2.36 log-fold
same,log-fold changes in CFU,"[3]; 48 h, 128 μg/mL",2.35 log-fold
same,log-fold changes in CFU,"[3]; 72 h, 2 μg/mL",2.47 log-fold
same,log-fold changes in CFU,"[3]; 72 h, 8 μg/mL",2.19 log-fold
same,log-fold changes in CFU,"[3]; 72 h, 32 μg/mL",2.21 log-fold
same,log-fold changes in CFU,"[3]; 72 h, 128 μg/mL",2.30 log-fold
same,log-fold changes in CFU,"[4]; 24 h, 2 μg/mL",2.39 log-fold
same,log-fold changes in CFU,"[4]; 24 h, 8 μg/mL",2.33 log-fold
same,log-fold changes in CFU,"[4]; 24 h, 32 μg/mL",0.00 log-fold
same,log-fold changes in CFU,"[4]; 24 h, 128 μg/mL",−1.00 log-fold
same,log-fold changes in CFU,"[4]; 48 h, 2 μg/mL",2.57 log-fold
same,log-fold changes in CFU,"[4]; 48 h, 8 μg/mL",2.33 log-fold
same,log-fold changes in CFU,"[4]; 48 h, 32 μg/mL",0.23 log-fold
same,log-fold changes in CFU,"[4]; 48 h, 128 μg/mL",−1.00 log-fold
same,log-fold changes in CFU,"[4]; 72 h, 2 μg/mL",2.65 log-fold
same,log-fold changes in CFU,"[4]; 72 h, 8 μg/mL",2.52 log-fold
same,log-fold changes in CFU,"[4]; 72 h, 32 μg/mL",0.27 log-fold
same,log-fold changes in CFU,"[4]; 72 h, 128 μg/mL",−0.94 log-fold
same,log-fold changes in CFU,"[5]; 24 h, 2 μg/mL",0.21 log-fold
same,log-fold changes in CFU,"[5]; 24 h, 8 μg/mL",−0.79 log-fold
same,log-fold changes in CFU,"[5]; 24 h, 32 μg/mL",−0.89 log-fold
same,log-fold changes in CFU,"[5]; 24 h, 128 μg/mL",−0.95 log-fold
same,log-fold changes in CFU,"[5]; 48 h, 2 μg/mL",1.89 log-fold
same,log-fold changes in CFU,"[5]; 48 h, 8 μg/mL",−0.64 log-fold
same,log-fold changes in CFU,"[5]; 48 h, 32 μg/mL",−2.48 log-fold
same,log-fold changes in CFU,"[5]; 48 h, 128 μg/mL",−2.65 log-fold
same,log-fold changes in CFU,"[5]; 72 h, 2 μg/mL",2.00 log-fold
same,log-fold changes in CFU,"[5]; 72 h, 8 μg/mL",−0.63 log-fold
same,log-fold changes in CFU,"[5]; 72 h, 32 μg/mL",−2.78 log-fold
same,log-fold changes in CFU,"[5]; 72 h, 128 μg/mL",−2.95 log-fold
C[C@@H](c1ncncc1F)[C@](O)(Cn1cncn1)c1ccc(F)cc1F [Voriconazole],Susceptibility (CLSI),[1]; C. albicans R357,R
same,MIC,[1],> 64 mg/L
